Earlier results as cited in patent US9090495B2, “Slow release tablet composition for treating industrial water systems” (AMSA, Inc., priority 2009, dated 2015).

How the values were obtained:
[1] = alkaline pH, such as pH~9, industrial water system conditions
[2] = typical cooling tower system; composition of U.S. Pat. No. 4,816,061

SMILES | Time to degradation [1] | Duration of effectiveness of a typical dose [2] [days]
N#CC(Br)(Br)C(N)=O [DBNPA, 2,2-dibromo-3-nitrilopropionamide] | a few minutes | –
CCCCCCCCCCSCCN [n-decylthioethylamine] | – | 1 to 1.5
